Measurements: ChEMBL document CHEMBL3875222, “Benzenesulfonamide bearing imidazothiadiazole and thiazolotriazole scaffolds as potent tumor associated human carbonic anhydrase IX and XII inhibitors” (Bioorg Med Chem, 2017)

Columns and labels:
Carbonic anhydrase 1 = Carbonic anhydrase 1 (Homo sapiens, UniProt P00915); test: Inhibition of recombinant human erythrocyte cytosolic carbonic anhydrase 1 by stopped-flow CO2 hydration assay
Carbonic anhydrase 9 = Carbonic anhydrase 9 (Homo sapiens, UniProt Q16790); test: Inhibition of recombinant human membrane bound carbonic anhydrase 9 by stopped-flow CO2 hydration assay
Carbonic anhydrase 2 = Carbonic anhydrase 2 (Homo sapiens, UniProt P00918); test: Inhibition of recombinant human erythrocyte cytosolic carbonic anhydrase 2 by stopped-flow CO2 hydration assay
Carbonic anhydrase 12 = Carbonic anhydrase 12 (Homo sapiens, UniProt O43570); test: Inhibition of recombinant human membrane bound carbonic anhydrase 12 by stopped-flow CO2 hydration assay
Sequence of Carbonic anhydrase 12 (O43570 whole entry): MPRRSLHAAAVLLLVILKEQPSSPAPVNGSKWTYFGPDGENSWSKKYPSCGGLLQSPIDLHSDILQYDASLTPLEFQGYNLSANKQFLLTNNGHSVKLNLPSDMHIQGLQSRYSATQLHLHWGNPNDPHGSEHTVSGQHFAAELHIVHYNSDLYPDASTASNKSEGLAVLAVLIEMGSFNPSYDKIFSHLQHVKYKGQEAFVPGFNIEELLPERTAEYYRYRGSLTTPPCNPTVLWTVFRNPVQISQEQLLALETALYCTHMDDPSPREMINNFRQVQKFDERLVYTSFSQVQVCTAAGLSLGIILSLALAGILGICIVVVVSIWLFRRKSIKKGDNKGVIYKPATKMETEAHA

Sequence of Carbonic anhydrase 1 (P00915 whole entry): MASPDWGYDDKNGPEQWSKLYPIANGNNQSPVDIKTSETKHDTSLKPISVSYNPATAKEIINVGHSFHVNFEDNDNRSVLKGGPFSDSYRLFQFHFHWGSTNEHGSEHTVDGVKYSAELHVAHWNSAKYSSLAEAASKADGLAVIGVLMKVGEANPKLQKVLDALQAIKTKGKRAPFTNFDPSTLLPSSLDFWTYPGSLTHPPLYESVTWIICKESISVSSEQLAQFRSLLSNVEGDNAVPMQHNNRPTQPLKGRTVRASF

Row | SMILES | Ki (Carbonic anhydrase 1) [nM] | Ki (Carbonic anhydrase 9) [nM] | Ki (Carbonic anhydrase 2) [nM] | Ki (Carbonic anhydrase 12) [nM]
1 | COc1ccc(-c2cn3nc(-c4ccc(S(N)(=O)=O)cc4)sc3n2)cc1 | 849 | 2830 | 830 | 3.8
2 | NS(=O)(=O)c1ccc(-c2nn3cc(-c4cccc([N+](=O)[O-])c4)nc3s2)cc1 | 510 | 172 | 274 | 50.4
3 | NS(=O)(=O)c1ccc(-c2nn3cc(-c4ccc([N+](=O)[O-])cc4)nc3s2)cc1 | 287 | 306 | 369 | 48.1
4 | NS(=O)(=O)c1ccc(-c2nc3scc(-c4ccc(-c5ccccc5)cc4)n3n2)cc1 | 97.5 | 133 | 22.3 | 297
5 | NS(=O)(=O)c1ccc(-c2nc3scc(-c4cccc([N+](=O)[O-])c4)n3n2)cc1 | 64.3 | 203 | 13.2 | 362
6 | NS(=O)(=O)c1ccc(-c2nn3cc(-c4ccc(-c5ccccc5)cc4)nc3s2)cc1 | 35.5 | 143 | 368 | 62.1
7 | COc1ccc(-c2csc3nc(-c4ccc(S(N)(=O)=O)cc4)nn23)cc1 | 83.3 | 147 | 15.1 | 22.3
8 | NS(=O)(=O)c1ccc(-c2nc3scc(-c4ccccc4)n3n2)cc1 | 17.9 | 262 | 18.1 | 147
9 | NS(=O)(=O)c1ccc(-c2nn3cc(-c4cccc(Br)c4)nc3s2)cc1 | 276 | 251 | 67.6 | 75.6
10 | Cc1ccc(-c2csc3nc(-c4ccc(S(N)(=O)=O)cc4)nn23)cc1 | 79.8 | 85.1 | 19.5 | 23.8
11 | NS(=O)(=O)c1ccc(-c2nn3cc(-c4ccccc4)nc3s2)cc1 | 318 | 208 | 7.3 | 4.1
12 | NS(=O)(=O)c1ccc(-c2nc3scc(-c4ccc(Br)cc4)n3n2)cc1 | 9700 | 172 | 6350 | 302
13 | NS(=O)(=O)c1ccc(-c2nn3cc(-c4ccc(F)cc4)nc3s2)cc1 | 218 | 136 | 56.2 | 79.4
14 | NS(=O)(=O)c1ccc(-c2nc3scc(-c4cccc(Br)c4)n3n2)cc1 | 9510 | 1090 | 2570 | 41.4
15 | NS(=O)(=O)c1ccc(-c2nn3cc(-c4ccc(Br)cc4)nc3s2)cc1 | 624 | 918 | 681 | 84.8
16 | NS(=O)(=O)c1ccc(-c2nc3scc(-c4ccc(Cl)cc4)n3n2)cc1 | 943 | 1680 | 529 | 26.7
17 | Cc1ccc(-c2cn3nc(-c4ccc(S(N)(=O)=O)cc4)sc3n2)cc1 | 243 | 275 | 240 | 3.3
18 | NS(=O)(=O)c1ccc(-c2nc3scc(-c4ccc([N+](=O)[O-])cc4)n3n2)cc1 | 9330 | 189 | 3860 | 35.1
19 | NS(=O)(=O)c1ccc(-c2nc3scc(-c4ccc(F)cc4)n3n2)cc1 | 662 | 237 | 301 | 359
20 | NS(=O)(=O)c1ccc(-c2nn3cc(-c4ccc(Cl)cc4)nc3s2)cc1 | 500 | 1210 | 244 | 80.1
